Values of other authors in patent publication US11351146B2, “Topical compositions for the treatment of cutaneous leishmaniasis” (AC BIOSCIENCE SA, priority 2017, dated 2022).

Assays:
[1] = tested on: L. mexicana, L. infantum and L. major promastigotes
[2] = tested on: intracellular amastigote; conditions: versus glucantime

In the case of CCOC(=O)c1cccc(NC(=O)CCl)c1 [MF 29, 3-(2-chloroacetamido) ethyl benzoate], the “effect on promastigotes strains” value ([1]; L. mexicana, L. infantum and L. major promastigotes) is listed as “high effect”, the “fold more active than glucantime” value ([1]; promastigote, versus glucantime) is listed as 400 fold and the “fold more active than glucantime” value [2] is listed as 400 fold.
